Values after ≈ are worked out from the molar mass of the structure shown. Read-outs that look alike come from different tables or passages of the source. *1 amine or outer side, *2 acyl side, *3 side chain or, on linkers, in order; H or OH if unused. Where a SMILES comes first, the peptide text is derived from it. Bridges are numbered along the chain shown (N, C = ends). [ ]: non-standard residue; d: D form. The star is where a group is joined. Orn(4R-OH,5R-OCH2CH2NMe3+) = C[N+](C)(C)CCO[C@@H](N[*:3])[C@H](O)C[C@H](N[*:1])C(=O)[*:2]; pTerphenylCO(4''-OnC5H11) = CCCCCOc1ccc(-c2ccc(-c3ccc(C(=O)*)cc3)cc2)cc1; Orn(4R-OH,5R-OH) = O=C([C@H](C[C@@H](O)[C@@H](O)N[*:3])N[*:1])[*:2]; hTyr(3S-OH,4S-OH) = N[C@H](C(=O)O)[C@H](O)[C@@H](O)c1ccc(O)cc1; Pro(3S-OH,4S-Me) = C[C@H]1CN[C@H](C(=O)O)[C@H]1O; hTyr(3R-OH) = N[C@H](C(=O)O)[C@H](O)Cc1ccc(O)cc1; Hyp = O=C(O)[C@@H]1C[C@@H](O)CN1
Key:
[1] = system: C. glabrata; test: Minimum inhibitory concentration broth double-dilution assay; format: cell-based, Candida glabrata; conditions: for MIC: 24 h, 30 °C
Experimental: The antifungal activities of compounds 1 and 2 were evaluated against a panel of 50 strains of C. albicans and C. glabrata (Table S4), including echinocandin-resistant strains that were constructed by introducing mutations within and near the defined hotspots in the FKS1 and/or FKS2 genes.[27] To evaluate antifungal activity, we determined MIC values. The MIC was defined as the lowest drug concentration that led to turbidity (measured at 600 nm) of less than or equal to 35% of that of the untreated culture. As controls, we tested CSF, MCF, ANF, and RZF.
All of the tested compounds were dissolved in anhydrous DMSO to a concentration of 5 mg/mL. Candida strains were streaked from a glycerol stock onto YPAD agar plates and grown for 24 h at 30 °C. Colonies were suspended in 1 mL of PBS and diluted to an O.D. of 0.01 at 600 nm with YPAD broth and added into flat-bottom 96-well microplates (Corning) containing a gradient of twofold dilutions per tested compound with concentrations ranging from 64 to 0.0009 μg/mL. Control wells with no drug and blank wells without yeast cells containing YPAD only were also prepared. […] Each concentration was tested in triplicate, and results were confirmed by at least two independent sets of experiments.

[2] = set-up: method as in PMID 23335738; conditions: patients with candidemia or invasive candidiasis, 200 mg loading dose day 1 then daily 100 mg; cited from earlier work
[3] = healthy volunteers, single 400 mg dose, a few hours after administration; cited from earlier work
[4] = #38 C. glabrata CBS138 (ATCC 2001)

SMILES | MIC ([1]; #9 C. glabrata EF1620) | MIC ([1]; #10 C. glabrata TGL00277) | MIC ([1]; #11 C. glabrata TGL00275) | MIC ([1]; #12 C. glabrata CST78) | MIC ([1]; #13 C. glabrata TGL00265) | MIC ([1]; #14 C. glabrata TGL00264) | MIC ([1]; #15 C. glabrata TGL00263) | MIC ([1]; #16 C. glabrata TGL00065) | MIC ([1]; #17 C. glabrata CST34) | MIC ([1]; #18 C. glabrata TGL00258) | MIC ([1]; #19 C. glabrata TGL00256) | MIC ([1]; #20 C. glabrata TGL00107) | MIC ([1]; #21 C. glabrata TGL00056) | MIC ([1]; #22 C. glabrata M12) | MIC ([1]; #23 C. glabrata TGL00270) | MIC ([1]; #24 C. glabrata TGL00269) | MIC ([1]; #25 C. glabrata TGL00268) | MIC ([1]; #26 C. glabrata TGL00268) | MIC ([1]; #27 C. glabrata EB0911) | MIC ([1]; #28 C. glabrata TGL00261) | also measured
CCCCCOc1ccc(-c2ccc(-c3ccc(C(=O)N[C@H]4C[C@@H](O)[C@@H](O)NC(=O)[C@@H]5[C@@H](O)[C@@H](C)CN5C(=O)[C@H]([C@@H](C)O)NC(=O)[C@H]([C@H](O)[C@@H](O)c5ccc(O)cc5)NC(=O)[C@@H]5C[C@@H](O)CN5C(=O)[C@H]([C@@H](C)O)NC4=O)cc3)cc2)cc1 [ANF, anidulafungin] ({pTerphenylCO(4''-OnC5H11)}-[Orn(4R-OH,5R-OH)]T[Hyp][hTyr(3S-OH,4S-OH)]T[Pro(3S-OH,4S-Me)]; lactam 1-C) | 0.008 µg/mL (≈ 0.00702 µM) | > 64 µg/mL | 4 µg/mL (≈ 3.51 µM) | 0.004 µg/mL (≈ 0.00351 µM) | 4 µg/mL (≈ 3.51 µM) | 32 µg/mL (≈ 28.1 µM) | 2 µg/mL (≈ 1.75 µM) | 8 µg/mL (≈ 7.02 µM) | 0.008 µg/mL (≈ 0.00702 µM) | > 64 µg/mL | 2 µg/mL (≈ 1.75 µM) | > 64 µg/mL | > 64 µg/mL | 0.002 µg/mL (≈ 0.00175 µM) | 4 µg/mL (≈ 3.51 µM) | 0.25 µg/mL (≈ 0.219 µM) | > 64 µg/mL | > 64 µg/mL | 0.004 µg/mL (≈ 0.00351 µM) | 2 µg/mL (≈ 1.75 µM) | MIC ([1]; #29 C. glabrata TGL00109): > 64 µg/mL; MIC ([1]; #30 C. glabrata TGL00259): 16 µg/mL (≈ 14 µM); Cmax [2]: ~7 µM
CCCCCOc1ccc(-c2ccc(-c3ccc(C(=O)N[C@H]4C[C@@H](O)[C@@H](O)NC(=O)[C@@H]5[C@@H](O)[C@@H](C)CN5C(=O)[C@H]([C@@H](C)O)NC(=O)[C@H]([C@H](O)Cc5ccc(O)cc5)NC(=O)[C@@H]5C[C@@H](O)CN5C(=O)[C@H]([C@@H](C)O)NC4=O)cc3)cc2)cc1 [Compound 1, dehydroxy-ANF] ({pTerphenylCO(4''-OnC5H11)}-[Orn(4R-OH,5R-OH)]T[Hyp][hTyr(3R-OH)]T[Pro(3S-OH,4S-Me)]; lactam 1-C) | 0.004 µg/mL (≈ 0.00356 µM) | 8 µg/mL (≈ 7.12 µM) | 8 µg/mL (≈ 7.12 µM) | 0.002 µg/mL (≈ 0.00178 µM) | 1 µg/mL (≈ 0.889 µM) | > 64 µg/mL | 1 µg/mL (≈ 0.889 µM) | 16 µg/mL (≈ 14.2 µM) | 0.002 µg/mL (≈ 0.00178 µM) | 32 µg/mL (≈ 28.5 µM) | 0.25 µg/mL (≈ 0.222 µM) | > 64 µg/mL | > 64 µg/mL | 0.002 µg/mL (≈ 0.00178 µM) | 1 µg/mL (≈ 0.889 µM) | 0.063 µg/mL (≈ 0.056 µM) | > 64 µg/mL | > 64 µg/mL | 0.002 µg/mL (≈ 0.00178 µM) | 0.25 µg/mL (≈ 0.222 µM) | MIC ([1]; #29 C. glabrata TGL00109): 64 µg/mL (≈ 56.9 µM); MIC ([1]; #30 C. glabrata TGL00259): 4 µg/mL (≈ 3.56 µM); MIC ([1]; #31 C. glabrata EF1237): 0.001 µg/mL (≈ 0.000889 µM); MIC ([1]; #36 C. glabrata F15): 0.002 µg/mL (≈ 0.00178 µM); MIC [1, 4]: 0.004 µg/mL (≈ 0.00356 µM); MIC ([1]; #41 C. glabrata P35_2): 0.002 µg/mL (≈ 0.00178 µM); MIC ([1]; #43 C. glabrata SLL2glab): 0.002 µg/mL (≈ 0.00178 µM); MIC ([1]; #46 C. glabrata BG2): 0.001 µg/mL (≈ 0.000889 µM); increase in potency on dehydroxylation of ANF (ratio MIC (ANF)/MIC (1)) ([1]; C. glabrata strain 28, Fks2 phenylalanine 659 deleted): 8 fold
CCCCCOc1ccc(-c2ccc(-c3ccc(C(=O)N[C@H]4C[C@@H](O)[C@@H](OCC[N+](C)(C)C)NC(=O)[C@@H]5[C@@H](O)[C@@H](C)CN5C(=O)[C@H]([C@@H](C)O)NC(=O)[C@H]([C@H](O)Cc5ccc(O)cc5)NC(=O)[C@@H]5C[C@@H](O)CN5C(=O)[C@H]([C@@H](C)O)NC4=O)cc3)cc2)cc1 [Compound 2, dehydroxy-RZF] ({pTerphenylCO(4''-OnC5H11)}-[Orn(4R-OH,5R-OCH2CH2NMe3+)]T[Hyp][hTyr(3R-OH)]T[Pro(3S-OH,4S-Me)]; lactam 1-C) | 0.015 µg/mL | 16 µg/mL | 8 µg/mL | 0.004 µg/mL | 2 µg/mL | 32 µg/mL | 2 µg/mL | 8 µg/mL | 0.004 µg/mL | 8 µg/mL | 0.25 µg/mL | 16 µg/mL | > 64 µg/mL | 0.002 µg/mL | 4 µg/mL | 0.063 µg/mL | > 64 µg/mL | > 64 µg/mL | 0.004 µg/mL | 1 µg/mL | MIC ([1]; #29 C. glabrata TGL00109): 64 µg/mL; MIC ([1]; #30 C. glabrata TGL00259): 8 µg/mL; MIC ([1]; #31 C. glabrata EF1237): 0.002 µg/mL; MIC ([1]; #36 C. glabrata F15): 0.004 µg/mL; MIC [1, 4]: 0.008 µg/mL; MIC ([1]; #41 C. glabrata P35_2): 0.004 µg/mL; MIC ([1]; #43 C. glabrata SLL2glab): 0.008 µg/mL; MIC ([1]; #46 C. glabrata BG2): 0.008 µg/mL
CCCCCOc1ccc(-c2ccc(-c3ccc(C(=O)N[C@H]4C[C@@H](O)[C@@H](OCC[N+](C)(C)C)NC(=O)[C@@H]5[C@@H](O)[C@@H](C)CN5C(=O)[C@H]([C@@H](C)O)NC(=O)[C@H]([C@H](O)[C@@H](O)c5ccc(O)cc5)NC(=O)[C@@H]5C[C@@H](O)CN5C(=O)[C@H]([C@@H](C)O)NC4=O)cc3)cc2)cc1 [RZF, rezafungin] ({pTerphenylCO(4''-OnC5H11)}-[Orn(4R-OH,5R-OCH2CH2NMe3+)]T[Hyp][hTyr(3S-OH,4S-OH)]T[Pro(3S-OH,4S-Me)]; lactam 1-C) | 0.015 µg/mL | 64 µg/mL | 16 µg/mL | 0.008 µg/mL | 16 µg/mL | 32 µg/mL | 32 µg/mL | > 64 µg/mL | 0.008 µg/mL | > 64 µg/mL | 4 µg/mL | > 64 µg/mL | > 64 µg/mL | 0.008 µg/mL | > 64 µg/mL | 1 µg/mL | > 64 µg/mL | > 64 µg/mL | 0.015 µg/mL | 16 µg/mL | MIC ([1]; #29 C. glabrata TGL00109): 64 µg/mL; MIC ([1]; #30 C. glabrata TGL00259): > 64 µg/mL; Cmax [3]: ~17 µM
